Assay results published in patent US12551437B2, “Liposome compositions comprising weak acid drugs and uses thereof” (Pharmosa Biopharm Inc., priority 2017, dated 2026).

What was measured:
[1] = cited from earlier work
[2] = Drug loading and encapsulation efficiency of liposome suspensions (G-25 column separation, HPLC); assay type: physicochemical
Experimental: Liposome colloidal suspensions were prepared by ethanol injection technique. […] (DSPE-PEG2000) were dissolved in 2.86 ml of ethanol. The lipid solution in ethanol was injected into 17.4 ml of sodium acetate (200 mM or 400 mM) with vigorous stirring at 60° C. Liposomes were formed as soon as the lipid solution was in contact with sodium acetate. This was followed by extruding the liposome suspension through a 200 nm and a 100 nm polycarbonate membrane (six times, respectively). The liposome with about 100 nm was obtained and diafiltrated against a citrate buffer (pH 5.5) to form a higher inside/lower outside pH gradient between the external medium and the internal aqueous medium of the liposomes. The empty liposome suspension was then stored at 4° C. before drug loading process.
PGE1 (alprostadil) was added to the liposome suspension in the preceding paragraph at various drug/lipid molar ratios at room temperature (25° C.) for 20 min. The PGE1 loaded liposome suspension was stored at 4° C.
The liposome suspension was prepared according to the method described in Section 1.1, except that sodium acetate (200 mM or 400 mM) was replaced by sodium bicarbonate (e.g. 200 mM, 400 mM or other concentrations).
The amount of the drug encapsulated into the liposome was quantified using Waters Alliance® HPLC system with a Photodiode Array (PDA) Detector. […] Separation was performed in C18 Column (Phenomenex Prodigy 5U ODS-3 150×4.6 mm), and then post-reaction was carried out by mixed with IN of KOH at 65° C. The peak of the drug e.g. PGE1 was detected at 280 nm. The retention time was about 4.6 minutes.
Encapsulation efficiency (EE), i.e. the percentage of the drug encapsulated (or loaded) in the internal aqueous medium of the liposomes to the total amount of the drug present in the liposome suspension (i.e. drug in the external medium and drug loaded into the internal aqueous medium of the liposomes) was quantified as follows. Briefly, the liposome suspension was subjected to column chromatography. The free or non-associated drug (i.e. the drug in the external medium) and the liposomes containing the encapsulated drugs in the internal aqueous medium were separated from each other by eluting the liposome suspension through a G-25 column. The amount of the free drug was determined using Waters HPLC with PDA detection, and the amount of the encapsulated drug in the internal aqueous medium of the liposome, after destructing the liposomes with methanol (90% methanol and 10% liposome suspension), was also determined using the same method. The encapsulation efficiency was calculated using the following formula,
[formula] where L is the amount of the encapsulated drug in the internal aqueous medium of the liposomes, and F is the amount of the free drug in the external medium.
In addition, the internal drug concentration (mM) was calculated as follows. Internal drug concentration (mM)=[Drug [μg/mL]×EE %/molecular weight]/[trapped volume*]

pulmonary hypertension = experiment: Hypoxia-induced pulmonary hypertension in rats, mean pulmonary arterial pressure (PAP); assay type: in vivo, Sprague Dawley rats; details: treprostinil at 6 μg/kg, single dose, microsprayer at the trachea bifurcation, hypoxic rats (FiO2=0.1)
Experimental: To induce pulmonary hypertension, a pressure catheter was inserted into the pulmonary artery of each rat. One end of the catheter was exposed at the nape of the neck and connected to a pressure transducer. 24 Hours after the catheter insertion, the rats were transferred into a hypoxic chamber where the oxygen (O2) level was reduced to 10% (FiO2=0.1) by increasing the level of nitrogen (N2). Once stable pulmonary hypertension was established, each rat was administered with a single dose of the three test articles: saline (N=6), free treprostinil at 6 μg/kg (N=6) or the pharmaceutical composition of Example 4 with treprostinil at 6 μg/kg (liposomal treprostinil, N=6). The test article was administered using a microsprayer at the trachea bifurcation of the rat. Following the test article administration, mean pulmonary arterial pressure (PAP) was measured at scheduled time points.

[3] = Incubation of liposome suspensions at simulated human physiological condition: pH of external medium and leakage; assay type: physicochemical; details: 20 minutes; for pH at incubation temperature: external buffer 280 mOsm/Kg, citrate 10 mM; for liposome leakage: 280 mOsm/Kg
Experimental: Liposome suspensions using various concentrations of sodium bicarbonate for PGE1 loading were prepared according to section 1.1 of Example 1. The liposome suspensions were incubated at 25° C. and 37° C. for 20 minutes in an external buffer with osmolarity between 280-300 mOsm/Kg, to simulate human physiological condition.
Incubating formulations with a bicarbonate concentration of higher than about 1000 mM in human physiological condition (37° C. and 280-300 mOsm/Kg) generated more CO2, and lead to liposome leakage. The leaked liposomes released bicarbonate salt and the drug from the internal aqueous medium into the external medium and increased the pH of external medium to higher than 6.5.

[4] = liposomal formulation (4-2) HSPC:cholesterol:DSPG 3:2:0.075, internal bicarbonate salt 400 mM, drug loading at 40° C.
[5] = liposomal formulation (4-1) HSPC:cholesterol:DSPE-mPEG2000 3:2:0.075, internal bicarbonate salt 200 mM, drug loading at 25° C.
[6] = liposomal formulation (4-1) HSPC:cholesterol:DSPE-mPEG2000 3:2:0.075, internal bicarbonate salt 400 mM, drug loading at 25° C.
[7] = liposomal formulation (4-1) HSPC:cholesterol:DSPE-mPEG2000 3:2:0.075, internal bicarbonate salt 400 mM, drug loading at 40° C.
[8] = liposomal formulation (4-3) DPPC:Cholesterol:DSPE-mPEG2000 3:2:0.075, internal bicarbonate salt 400 mM, drug loading at 40° C.
[9] = liposomal formulation (4-4) DSPC:DPPC:Cholesterol:mPEG2000-DSPE 2.7:0.3:2:0.075, internal bicarbonate salt 250 mM, drug loading at 40° C.
[10] = liposomal formulation (4-5) HSPC:Cholesterol:mPEG2000-DSPE:stearylamine 3:2:0.075:0.025, internal bicarbonate salt 400 mM, drug loading at 40° C.
[11] = liposomal formulation (4-6) HSPC:DMPC:Cholesterol:mPEG2000-DSPE 2.7:0.3:2:0.075, internal bicarbonate salt 400 mM, drug loading at 40° C.
[12] = sodium bicarbonate internal salt 50 mM, 10 mM of phospholipid
[13] = sodium bicarbonate internal salt 150 mM, 10 mM of phospholipid
[14] = sodium bicarbonate internal salt 200 mM, 10 mM of phospholipid
[15] = sodium bicarbonate internal salt 250 mM, 10 mM of phospholipid
[16] = sodium bicarbonate internal salt 300 mM, 10 mM of phospholipid
[17] = sodium bicarbonate internal salt 400 mM, 10 mM of phospholipid
[18] = sodium bicarbonate internal salt 500 mM, 5 mM of phospholipid
[19] = sodium bicarbonate internal salt 600 mM, 10 mM of phospholipid
[20] = sodium bicarbonate internal salt 800 mM, 10 mM of phospholipid

CC#CCC(C)[C@H](O)/C=C/[C@@H]1[C@H]2c3cccc(CCCC(=O)O)c3O[C@H]2C[C@H]1O (mixture of isomers) [Beraprost]
pKa [1]: 4.2

O=C(O)COC(=O)Cc1ccccc1Nc1c(Cl)cccc1Cl [Aceclofenac]
pKa [1]: 4.7

CC1(C)[C@@H](OC(=O)CCC(=O)O)CC[C@]2(C)[C@H]3C(=O)C=C4[C@@H]5C[C@@](C)(C(=O)O)CC[C@]5(C)CC[C@@]4(C)[C@]3(C)CC[C@@H]12 [Carbenoxolone sodium]
pKa [1]: 4.7

C[C@@H]1C[C@H]2[C@@H]3CCC4=CC(=O)C=C[C@]4(C)[C@@]3(F)[C@@H](O)C[C@]2(C)[C@@]1(O)C(=O)COP(=O)(O)O [Dexamethasone sodium phosphate]
pKa [1]: 1.89

CCCCC[C@H](O)/C=C/[C@@H]1[C@H]2C/C(=C/CCCC(=O)O)O[C@H]2C[C@H]1O [Epoprostenol]
pKa [1]: 4.43

C[C@]12CCC(=O)C=C1CC[C@@H]1[C@@H]2[C@@H](O)C[C@@]2(C)[C@H]1CC[C@]2(O)C(=O)COC(=O)CCC(=O)O [Hydrocortisone sodium succinate]
pKa [1]: 3.66

CC#CCC(C)[C@H](O)/C=C/[C@@H]1[C@H]2C/C(=C/CCCC(=O)O)C[C@H]2C[C@H]1O (stereo partly drawn) [Iloprost]
E.E. [2, 4]: 97.4%
Internal [drug] [2, 4]: 170.34 mM
Internal drug to internal salt molar ratio [2, 4]: 0.426
Measured [drug] [2, 4]: 395.9 µg/mL
pKa [1]: 4.66

O=C(c1ccccc1)c1ccc2n1CCC2C(=O)O (stereo not drawn) [Ketorolac sodium]
pKa [1]: 3.8

O=C(c1ccccc1)c1ccc2n1CCC2C(=O)O (stereo not drawn) [Ketorolac]
E.E. [2, 5]: 91.0%
Internal [drug] [2, 5]: 87.06 mM
Internal drug to internal salt molar ratio [2, 5]: 0.435
Measured [drug] [2, 5]: 766.8 µg/mL
E.E. [2, 6]: 91.2%
Internal [drug] [2, 6]: 135.71 mM
Internal drug to internal salt molar ratio [2, 6]: 0.339
Measured [drug] [2, 6]: 1192.7 µg/mL

CN1C(C(=O)Nc2ccccn2)=C(O)c2sc(Cl)cc2S1(=O)=O [Lornoxicam]
E.E. [2, 7]: 93.3%
Internal [drug] [2, 7]: 88.41 mM
Internal drug to internal salt molar ratio [2, 7]: 0.221
Measured [drug] [2, 7]: 1106.3 µg/mL
pKa [1]: 1.8

CC(C)N(CCCCOCC(=O)O)c1cnc(-c2ccccc2)c(-c2ccccc2)n1 [MIRE-269 (ACT-333679)]
E.E. [2, 4]: 98.7%
Internal [drug] [2, 4]: 65.41 mM
Internal drug to internal salt molar ratio [2, 4]: 0.164
Measured [drug] [2, 4]: 174.6 µg/mL
pKa [1]: 3.77

C[C@H]1C[C@@H]2[C@H]([C@@H](O)C[C@@]3(C)[C@H]2CC[C@]3(O)C(=O)COC(=O)CCC(=O)O)[C@@]2(C)C=CC(=O)C=C12 [Methylprednisolone Hemisuccinate (MPSS), Methylprednisolone Hemisuccinate]
E.E. [2, 7]: 85.9%
Internal [drug] [2, 7]: 65.27 mM
Internal drug to internal salt molar ratio [2, 7]: 0.163
Measured [drug] [2, 7]: 1132.2 µg/mL
pKa [1]: 4.29

C[C@H]1C[C@@H]2[C@H]([C@@H](O)C[C@@]3(C)[C@H]2CC[C@]3(O)C(=O)COC(=O)CCC(=O)O)[C@@]2(C)C=CC(=O)C=C12 [Methylprednisolone sodium succinate]
pKa [1]: 4.6

O=C(O)CCc1nc(-c2ccccc2)c(-c2ccccc2)o1 [Oxaprozin]
pKa [1]: 4.95

CN1C(C(=O)Nc2ccccn2)=C(O)c2ccccc2S1(=O)=O [Piroxicam]
E.E. [2, 7]: 84.5%
Internal [drug] [2, 7]: 76.72 mM
Internal drug to internal salt molar ratio [2, 7]: 0.192
Measured [drug] [2, 7]: 944.7 µg/mL
pKa [1]: 4.8

CCCCC[C@H](O)CC[C@@H]1[C@H]2Cc3cccc(OCC(=O)O)c3C[C@H]2C[C@H]1O [Prostacycline (treprostinil), treprostinil]
maximum reduction of mean PAP (pulmonary hypertension): 20%
E.E. [2, 4]: 97.6%
Internal [drug] [2, 4]: 121.78 mM
Internal drug to internal salt molar ratio [2, 4]: 0.304
Measured [drug] [2, 4]: 1530.0 µg/mL
E.E. [2, 8]: 90.4%
Internal [drug] [2, 8]: 115.01 mM
Internal drug to internal salt molar ratio [2, 8]: 0.288
Measured [drug] [2, 8]: 1560 µg/mL
E.E. [2, 9]: 97.4%
Internal [drug] [2, 9]: 77.84 mM
Internal drug to internal salt molar ratio [2, 9]: 0.311
Measured [drug] [2, 9]: 980 µg/mL
E.E. [2, 10]: 93.7%
Internal [drug] [2, 10]: 114.62 mM
Internal drug to internal salt molar ratio [2, 10]: 0.287
Measured [drug] [2, 10]: 1500 µg/mL
E.E. [2, 11]: 94.5%
Internal [drug] [2, 11]: 119.45 mM
Internal drug to internal salt molar ratio [2, 11]: 0.299
Measured [drug] [2, 11]: 1550 µg/mL

CCCCC[C@H](O)/C=C/[C@H]1[C@H](O)CC(=O)[C@@H]1CCCCCCC(=O)O [Prostaglandin E1 (PGE1), Prostaglandin E1]
pH at incubation temperature ([3]; bicarbonate 600 mM, 25° C.): 5.42
pH at incubation temperature ([3]; bicarbonate 600 mM, 37° C.): 5.43
pH at incubation temperature ([3]; bicarbonate 800 mM, 25° C.): 5.38
pH at incubation temperature ([3]; bicarbonate 800 mM, 37° C.): 5.53
pH at incubation temperature ([3]; bicarbonate 1000 mM, 25° C.): 5.37
liposome leakage ([3]; bicarbonate 1000 mM, 37° C.): leakage
pH at incubation temperature ([3]; bicarbonate 1000 mM, 37° C.): 6.68
pH at incubation temperature ([3]; bicarbonate 1300 mM, 25° C.): 5.44
liposome leakage ([3]; bicarbonate 1300 mM, 37° C.): leakage
pH at incubation temperature ([3]; bicarbonate 1300 mM, 37° C.): 6.74
E.E. [2, 6]: 92.8%
Internal [drug] [2, 6]: 161.81 mM
Internal drug to internal salt molar ratio [2, 6]: 0.405
Measured [drug] [2, 6]: 1940.8 µg/mL
E.E. [2, 12]: 93.8%
Internal [PGE1] [2, 12]: 19.08 mM
Internal drug to internal salt molar ratio [2, 12]: 0.382
[PGE1] [2, 12]: 226.4 µg/mL
E.E. [2, 13]: 95.7%
Internal [PGE1] [2, 13]: 60.25 mM
Internal drug to internal salt molar ratio [2, 13]: 0.402
[PGE1] [2, 13]: 700.7 µg/mL
E.E. [2, 14]: 95.9%
Internal [PGE1] [2, 14]: 80.47 mM
Internal drug to internal salt molar ratio [2, 14]: 0.402
[PGE1] [2, 14]: 934.0 µg/mL
E.E. [2, 15]: 92.3%
Internal [PGE1] [2, 15]: 119.94 mM
Internal drug to internal salt molar ratio [2, 15]: 0.480
[PGE1] [2, 15]: 1446.4 µg/mL
E.E. [2, 16]: 92.7%
Internal [PGE1] [2, 16]: 146.32 mM
Internal drug to internal salt molar ratio [2, 16]: 0.488
[PGE1] [2, 16]: 1756.9 µg/mL
E.E. [2, 17]: 92.8%
Internal [PGE1] [2, 17]: 161.81 mM
Internal drug to internal salt molar ratio [2, 17]: 0.405
[PGE1] [2, 17]: 1940.8 µg/mL
E.E. [2, 18]: 96.0%
Internal [PGE1] [2, 18]: 252.52 mM
Internal drug to internal salt molar ratio [2, 18]: 0.505
[PGE1] [2, 18]: 1463.9 µg/mL
E.E. [2, 19]: 93.1%
Internal [PGE1] [2, 19]: 215.66 mM
Internal drug to internal salt molar ratio [2, 19]: 0.359
[PGE1] [2, 19]: 2578.3 µg/mL
E.E. [2, 20]: 90.2%
Internal [PGE1] [2, 20]: 130.87 mM
Internal drug to internal salt molar ratio [2, 20]: 0.164
[PGE1] [2, 20]: 1614.9 µg/mL
pKa [1]: 4.35

CCCCC[C@H](O)/C=C/[C@H]1[C@H](O)CC(=O)[C@@H]1C/C=C\CCCC(=O)O [Prostaglandin E2 (PGE2), Prostaglandin E2]
pKa [1]: 4.3

O=C(O)COC[C@H]1CC[C@H](COC(=O)N(c2ccccc2)c2ccc(Cl)cc2)CC1 [Ralinepag (APD811), Ralinepag]
pKa [1]: 3.5

O=C(Oc1ccccc1C(=O)O)c1ccccc1O [Salsalate (Disalcid), Salsalate]
pKa [1]: 3.4
